From patent publication US7358276B2, “2-Oxo-1-pyrrolidine derivatives, processes for preparing them and their uses” (UCB, S.A., priority 2000, dated 2008)

Tests used:
[1] = target: T1, Levetiracetam Binding Site (LBS), rat cerebral cortex membranes (Rattus norvegicus, UniProt Q02563); experiment: LBS binding assay (competitive binding, [3H]-2-[4-(3-azidophenyl)-2-oxo-1-pyrrolidinyl]butanamide); conditions: 4° C., 120 min
T1 construct: The crude membrane pellet obtained is resuspended in 50 mmol/l Tris-HCl (pH 7.4); from tissue; host or cells: rat cerebral cortex crude membranes (male Sprague-Dawley)
T1 sequence (Q02563 whole entry): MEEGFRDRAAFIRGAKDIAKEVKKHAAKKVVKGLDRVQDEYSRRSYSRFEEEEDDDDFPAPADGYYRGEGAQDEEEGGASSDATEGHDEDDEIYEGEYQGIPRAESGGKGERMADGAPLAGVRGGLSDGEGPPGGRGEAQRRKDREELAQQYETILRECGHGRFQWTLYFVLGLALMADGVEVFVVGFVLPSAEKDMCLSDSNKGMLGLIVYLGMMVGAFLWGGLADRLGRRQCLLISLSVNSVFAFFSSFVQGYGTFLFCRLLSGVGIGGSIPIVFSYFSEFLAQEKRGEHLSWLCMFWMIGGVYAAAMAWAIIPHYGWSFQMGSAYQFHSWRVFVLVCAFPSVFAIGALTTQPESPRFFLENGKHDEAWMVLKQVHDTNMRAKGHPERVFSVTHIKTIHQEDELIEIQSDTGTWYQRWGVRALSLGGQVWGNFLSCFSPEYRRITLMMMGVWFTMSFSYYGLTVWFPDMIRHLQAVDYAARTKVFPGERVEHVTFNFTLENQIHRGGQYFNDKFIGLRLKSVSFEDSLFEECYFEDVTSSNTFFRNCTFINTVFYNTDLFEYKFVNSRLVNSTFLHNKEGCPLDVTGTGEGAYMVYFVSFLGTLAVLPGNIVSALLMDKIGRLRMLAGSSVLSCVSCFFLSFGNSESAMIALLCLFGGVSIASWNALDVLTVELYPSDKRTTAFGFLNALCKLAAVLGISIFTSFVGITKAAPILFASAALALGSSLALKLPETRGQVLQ

[2] = test system: audiogenic seizures in sound-susceptible mice; experiment: Animal model of sound-susceptible mice (audiogenic seizures); format: in vivo; conditions: intraperitoneally 60 minutes before induction of audiogenic seizures; doses given in mol/kg
Excerpt: The activity of the compounds of formula I, or their pharmaceutically acceptable salts, as anticonvulsants can be determined in the audiogenic seizures model. The objective of this test is to evaluate the anticonvulsant potential of a compound by means of audiogenic seizures induced in sound-susceptible mice, a genetic animal model with reflex seizures. In this model of primary generalised epilepsy, seizures are evoked without electrical or chemical stimulation and the seizure types are, at least in part, similar in their clinical phenomenology to seizures occurring in man (Löscher W. & Schmidt D., Epilepsy Res. (1998), 2, p. 145-181; Buchhalter J. R., Epilepsia (1993), 34, S31-S41). Results obtained with compounds of formula I are indicative of a strong pharmacological effect.
The objective of this test is to evaluate the anticonvulsant potency of a compound in sound-susceptible mice, a genetic animal model with reflex seizures. In this model of primary generalised epilepsy, seizures are evoked without electrical or chemical stimulation and the seizure types are, at least in part, similar in their clinical phenomenology to seizures occuring in man (Löscher W. & Schmidt D., Epilepsy Res. (1998), 2, 145-181; Buchhalter J. R., Epilepsia (1993), 34, S31-S41).
Male or female genetically sound-sensitive mice (14-28 g; N=10), derived from a DBA strain originally selected by Dr. Lehmann of the Laboratory of Acoustic Physiology (Paris) and bred in the UCB Pharma Sector husbandry unit since 1978, are used. The experimental design consisted of several groups, one group receiving the vehicle control and the other groups different doses of the test-compound. The compounds are administered intraperitoneally 60 minutes before the induction of audiogenic seizures.
For testing, the animals are placed in small cages, one mouse per cage, in a sound-attenuated chamber. After a period of orientation of 30 seconds, the acoustic stimulus (90 dB, 10-20 kHz) is delivered for 30 seconds via loudspeakers positioned above each cage. During this interval, the mice are observed and the presence of the 3 phases of the seizure activity namely wild running, clonic and tonic convulsions, is recorded. The proportion of mice protected against wild running, clonic and tonic convulsions, respectively, is calculated.
For active compounds, an ED50 value, i.e. the dose producing 50% protection relative to the control group, together with 95% confidence limits, was calculated using a Probit Analysis (SAS/STAT® Software, version 6.09, PROBIT procedure) of the proportions of protected mice for each of the 3 phases of the seizure activity.

C=CC1CC(=O)N(C(CC)C(N)=O)C1 (stereo not drawn) [Compound 41]
pKi (affinity for the levetiracetam binding site) [1]: Particular affinity | ED50 (dose producing 50% protection against audiogenic seizures) [2]: Particularly promising activity | melting point: 120.5 °C

CCC(C(N)=O)N1CC(c2nccs2)CC1=O (stereo not drawn) [Compound 64]
pKi (affinity for the levetiracetam binding site) [1]: Particular affinity | ED50 (dose producing 50% protection against audiogenic seizures) [2]: Particularly promising activity | melting point: 94.3 °C

CC[C@@H](C(N)=O)N1CC(c2cccs2)CC1=O (stereo partly drawn) [Compound 71, (2S)-2-[2-oxo-4-(2-thienyl)-1-pyrrolidinyl]butanamide]
pKi (affinity for the levetiracetam binding site) [1]: Particular affinity | ED50 (dose producing 50% protection against audiogenic seizures) [2]: Particularly promising activity | melting point: 69.3 °C

CC[C@@H](C(N)=O)N1CC(c2ccc(N=[N+]=[N-])cc2)CC1=O (stereo partly drawn) [Compound 81]
pKi (affinity for the levetiracetam binding site) [1]: Particular affinity | ED50 (dose producing 50% protection against audiogenic seizures) [2]: Particularly promising activity | melting point: 91.4 °C

CC[C@@H](C(N)=O)N1CC(c2cccc(N=[N+]=[N-])c2)CC1=O (stereo partly drawn) [Compound 87]
pKi (affinity for the levetiracetam binding site) [1]: Particular affinity | ED50 (dose producing 50% protection against audiogenic seizures) [2]: Particularly promising activity | melting point: 98 °C

C=C[C@@H]1CC(=O)N([C@@H](CC)C(N)=O)C1 [Compound 92]
pKi (affinity for the levetiracetam binding site) [1]: Particular affinity | ED50 (dose producing 50% protection against audiogenic seizures) [2]: Particularly promising activity | melting point: 79 °C

C=C[C@H]1CC(=O)N([C@@H](CC)C(N)=O)C1 [Compound 93]
pKi (affinity for the levetiracetam binding site) [1]: Particular affinity | ED50 (dose producing 50% protection against audiogenic seizures) [2]: Particularly promising activity | melting point: 68.3 °C

CCC(C(N)=O)N1CC(c2ccccc2Br)CC1=O (stereo not drawn) [Compound 95]
pKi (affinity for the levetiracetam binding site) [1]: Particular affinity | ED50 (dose producing 50% protection against audiogenic seizures) [2]: Particularly promising activity | melting point: 165.4 °C

CCC(C(N)=O)N1CC(c2cccnc2)CC1=O (stereo not drawn) [Compound 96]
pKi (affinity for the levetiracetam binding site) [1]: Particular affinity | ED50 (dose producing 50% protection against audiogenic seizures) [2]: Particularly promising activity | melting point: 104.3 °C

CC[C@@H](C(=O)NC)N1CC(CI)CC1=O (stereo partly drawn) [Compound 146, (2S)-2-[4-(iodomethyl)-2-oxo-1-pyrrolidinyl]-N-methylbutanamide]
pKi (affinity for the levetiracetam binding site) [1]: Particular affinity | ED50 (dose producing 50% protection against audiogenic seizures) [2]: Particularly promising activity | melting point: 66.6 °C

CCC(C(N)=O)N1CC(/C=C\F)CC1=O (stereo not drawn) [Compound 162]
pKi (affinity for the levetiracetam binding site) [1]: Particular affinity | ED50 (dose producing 50% protection against audiogenic seizures) [2]: Particularly promising activity | melting point: 105 °C

CCCCC1CC(=O)N(C(CC)C(N)=O)C1 (stereo not drawn) [Compound 164]
pKi (affinity for the levetiracetam binding site) [1]: Particular affinity | ED50 (dose producing 50% protection against audiogenic seizures) [2]: Particularly promising activity | melting point: 108.8 °C

CCC(C(N)=O)N1CC(CC(C)C)CC1=O (stereo not drawn) [Compound 166]
pKi (affinity for the levetiracetam binding site) [1]: Particular affinity | ED50 (dose producing 50% protection against audiogenic seizures) [2]: Particularly promising activity | melting point: 120.2 °C

CC[C@@H](C(N)=O)N1CC(c2cccc(Br)c2)CC1=O (stereo partly drawn) [Compound 180]
pKi (affinity for the levetiracetam binding site) [1]: Particular affinity | ED50 (dose producing 50% protection against audiogenic seizures) [2]: Particularly promising activity | melting point: 99.6 °C

CCC(C(N)=O)N1CC(c2ccc(Cl)c(Cl)c2)CC1=O (stereo not drawn) [Compound 187]
pKi (affinity for the levetiracetam binding site) [1]: Particular affinity | ED50 (dose producing 50% protection against audiogenic seizures) [2]: Particularly promising activity | melting point: 177.9 °C

CCC(C(N)=O)N1CC(c2ccc(Cl)cc2Cl)CC1=O (stereo not drawn) [Compound 188]
pKi (affinity for the levetiracetam binding site) [1]: Particular affinity | ED50 (dose producing 50% protection against audiogenic seizures) [2]: Particularly promising activity | melting point: 154.7 °C

CCC(C(N)=O)N1CC(CCCc2ccccc2)CC1=O (stereo not drawn) [Compound 197]
pKi (affinity for the levetiracetam binding site) [1]: Particular affinity | ED50 (dose producing 50% protection against audiogenic seizures) [2]: Particularly promising activity | melting point: 92.5 °C

CC[C@@H](C(N)=O)N1CC(c2cc(Br)cc(Br)c2)CC1=O (stereo partly drawn) [Compound 198]
pKi (affinity for the levetiracetam binding site) [1]: Particular affinity | ED50 (dose producing 50% protection against audiogenic seizures) [2]: Particularly promising activity | melting point: 118.6 °C

CCC(C(N)=O)N1CC(c2ccc(Cl)c(Cl)c2)CC1=O (stereo not drawn) [Compound 200]
pKi (affinity for the levetiracetam binding site) [1]: Particular affinity | ED50 (dose producing 50% protection against audiogenic seizures) [2]: Particularly promising activity | melting point: 154.4 °C

CCC(C(N)=O)N1CC(c2ccccc2F)CC1=O (stereo not drawn) [Compound 209]
pKi (affinity for the levetiracetam binding site) [1]: Particular affinity | ED50 (dose producing 50% protection against audiogenic seizures) [2]: Particularly promising activity | melting point: 123.7 °C

CCC(C(N)=O)N1CC(c2ccccc2F)CC1=O (stereo not drawn) [Compound 211]
pKi (affinity for the levetiracetam binding site) [1]: Particular affinity | ED50 (dose producing 50% protection against audiogenic seizures) [2]: Particularly promising activity | melting point: 150.9 °C

CC[C@@H](C(N)=O)N1CC(CC2CC2)CC1=O (stereo partly drawn) [Compound 212]
pKi (affinity for the levetiracetam binding site) [1]: Particular affinity | ED50 (dose producing 50% protection against audiogenic seizures) [2]: Particularly promising activity | melting point: 104.4 °C

CC[C@@H](C(N)=O)N1CC(CCC(F)(F)F)CC1=O (stereo partly drawn) [Compound 214]
pKi (affinity for the levetiracetam binding site) [1]: Particular affinity | ED50 (dose producing 50% protection against audiogenic seizures) [2]: Particularly promising activity | melting point: 120.9 °C

CC[C@@H](C(N)=O)N1CC(CCC(F)(F)F)CC1=O (stereo partly drawn) [Compound 215]
pKi (affinity for the levetiracetam binding site) [1]: Particular affinity | ED50 (dose producing 50% protection against audiogenic seizures) [2]: Particularly promising activity | melting point: 115.9 °C

CCC(C(N)=O)N1CC(c2cccc(C)c2)CC1=O (stereo not drawn) [Compound 219]
pKi (affinity for the levetiracetam binding site) [1]: Particular affinity | ED50 (dose producing 50% protection against audiogenic seizures) [2]: Particularly promising activity | melting point: 79.4 °C

CC[C@@H](C(N)=O)N1CC(CC2CC2)CC1=O (stereo partly drawn) [Compound 221]
pKi (affinity for the levetiracetam binding site) [1]: Particular affinity | ED50 (dose producing 50% protection against audiogenic seizures) [2]: Particularly promising activity | melting point: 93.9 °C

C=CCC1CC(=O)N([C@@H](CC)C(N)=O)C1 (stereo partly drawn) [Compound 224, (2S)-2-(4-allyl-2-oxo-1-pyrrolidinyl)butanamide]
pKi (affinity for the levetiracetam binding site) [1]: Particular affinity | ED50 (dose producing 50% protection against audiogenic seizures) [2]: Particularly promising activity | melting point: 69.2 °C

C=CCC1CC(=O)N([C@@H](CC)C(N)=O)C1 (stereo partly drawn) [Compound 228, (2S)-2-(4-allyl-2-oxo-1-pyrrolidinyl)butanamide]
pKi (affinity for the levetiracetam binding site) [1]: Particular affinity | ED50 (dose producing 50% protection against audiogenic seizures) [2]: Particularly promising activity | melting point: 58.3 °C
